Measured values reported in patent publication US20230218618A1, “ADMINISTRATION OF SUMO-ACTIVATING ENZYME INHIBITOR AND ANTI-CD38 ANTIBODIES” (MILLENNIUM PHARMACEUTICALS, INC., priority 2020, published 2023).

Columns and labels:
Type in all cases: in vivo, SCID mice
[1] = system: MOLP-8 human multiple myeloma cell line; assay: Study 4: MOLP-8 xenograft human multiple myeloma subcutaneous tumor model; conditions: for GRI%: vs vehicle; for Tumor growth compared to vehicle (pairwise comparison): I-263a 7.5 mg/kg BIW 2 weeks (p < 0.05 as printed), daratumumab 2.5, 7.5 or 20 mg/kg (p < 0.01; p < 0.01; p < 0.001), I-263a with daratumumab 2.5, 7.5 or 20 mg/kg (p < 0.001)
Protocol: (§1) Low tumor volumes can cause problems with the data analysis, so all measurements below 25 cubic mm (including 0 values) were excluded from the analysis. After this exclusion step, the tumor volume was assumed to follow an exponential growth model. More specifically, for a given animal and treatment group,
(§2) Pairwise comparisons were performed, where the mean growth rates were compared for various pairs of treatment conditions. The results were summarized using the growth rate inhibition (GRI). Suppose µT and µC are the mean tumor growth rates for the treatment and reference groups, respectively. Define
(§3) Here, µAB, µA, µB, and µControl are the mean growth rates for the combination, drug A, drug B, and control groups, respectively. As before, µv is the mean tumor growth rate for the vehicle group, which in most cases is the same as the control group. The standard error of the synergy score was calculated as the square root of the sum of squared standard errors across the four groups. The degrees of freedom were estimated using the Welch-Satterthwaite equation. A hypothesis test was performed to determine if the synergy score differed from 0. P-values were calculated by dividing the synergy score by its standard error and tested against a t-distribution (two-tailed) with the above-calculated degrees of freedom. A P value of less than 0.05 is statistically significant.
(§4) The combination results can be interpreted as follows. Statistically significant negative synergy scores indicate a synergistic combination (“Syn.”). Statistically significant positive synergy scores indicate a sub-additive combination (“Sub-add.”) when the combination performs better (i.e. has a lower growth rate) than the best performing single agent. Statistically significant positive synergy scores indicate an antagonistic combination (“Antag.”) when the combination performs worse than the best performing single agent. Scores that are not statistically significant should be considered additive (“Add.”).
MOLP-8 is a human multiple myeloma cell line. A MOLP-8 human xenograft tumor model was generated by subcutaneous inoculation with 4.0 × 10^6 MOLP-8 cells (cell suspension) in 14 weeks old female SCID mice (Vital River Laboratory Animal Technology Co., Ltd, Beijing, China) in the flank. When the mean tumor volume reached approximately 170 mm^3, the animals were randomized into one vehicle control and seven treatment groups (n=8/group). Mice were then dosed with 20% HPβCD or Compound I-263a or daratumumab over a 14-day period. Tumor growth and body weight were measured twice per week during the treatment and post-treatment periods, and mice were humanely euthanized once they had reached their humane endpoint.
A 0.75 mg/mL stock solution of I-263a was formulated weekly in 20% HPβCD and administered IV based on exact animal body weight on each day of treatment, using a dosing volume of 10 mL/kg body weight. Final dose I-263a received was 7.5 mg/kg. I-263a was administered on a BIW schedule for 2 weeks (Days 1, 4, 8, and 11). Daratumumab (anti-CD38 antibody) (Janssen Biotech, Inc., Horsham, PA) was stored at 4° C. according to manufacturer’s instructions. Final dose daratumumab received was 2.5 mg/kg, 7.5 mg/kg, and 20 mg/kg based on exact animal body weight on each day of treatment, using a dosing volume of 10 mL/kg body weight. Daratumumab was administered intraperitoneally (IP) using a 0.1 mL dosing volume, on a BIW schedule for 2 weeks (Days 1, 4, 8, and 11).
Tumors were measured twice weekly using Vernier calipers. Tumor volumes were calculated using standard equation: V = W^2 × L/2, where V = volume, W = width, and L = length for the tumor. When mean tumor volumes reached approximately 170 mm^3, mice were randomized into control and treatment groups. Mice were randomized into 8 groups (n=8/group) and dosed with vehicle (20% HPβCD), I-263a, daratumumab, or the combination of I-263a plus daratumumab at doses and schedules as described above. […]

[2] = system: RPMI-8226 human multiple myeloma cell line; assay: Study 6: RPMI-8226 human multiple myeloma subcutaneous tumor model; conditions: for GRI%: vs vehicle; for Tumor growth compared to vehicle-treated tumors (pairwise comparison): I-263a 7.5 mg/kg BIW 2 weeks, daratumumab 2.5, 7.5 or 20 mg/kg BIW 2 weeks, or both, p > 0.05
[3] = system: NCI-H929 human multiple myeloma cell line; assay: Study 5: NCI-H929 xenograft human multiple myeloma subcutaneous tumor model; conditions: for GRI%: vs vehicle; for Tumor growth compared to vehicle (pairwise comparison): I-263a 7.5 mg/kg BIW 2 weeks (p > 0.05), daratumumab 2.5, 7.5 or 20 mg/kg BIW 2 weeks alone or combined with I-263a (p < 0.001)
Protocol: as §1, §2, §3, §4
NCI-H929 is a human multiple myeloma cell line. A NCI-H929 human xenograft tumor model was generated by subcutaneous inoculation with 1.0 × 10^7 NCI-H929 cells (cell suspension) in 7 weeks old female SCID mice (Vital River Laboratory Animal Technology Co., Ltd, Beijing, China) in the flank. When the mean tumor volume reached approximately 180 mm^3, the animals were randomized into one vehicle control and seven treatment groups (n=10/group). Mice were then dosed with 20% HPβCD or Compound I-263a or daratumumab over a 14-day period. Tumor growth and body weight were measured twice per week during the treatment and post-treatment periods, and mice were humanely euthanized once they had reached their humane endpoint.
A 1.5 mg/mL stock solution of I-263a was formulated weekly in 20% HPβCD and administered IV based on exact animal body weight on each day of treatment, using a dosing volume of 5 mL/kg body weight. Final dose I-263a received was 7.5 mg/kg. I-263a was administered on a BIW schedule for 2 weeks (Days 0, 3, 7, and 10). Daratumumab (anti-CD38 antibody) (Janssen Biotech, Inc., Horsham, PA) was stored at 4° C. according to manufacturer’s instructions. Final dose daratumumab received was 2.5 mg/kg, 7.5 mg/kg, and 20 mg/kg based on average body weight. Daratumumab was administered intraperitoneally (IP) using a 0.1 mL dosing volume, on a BIW schedule for 2 weeks (Days 0, 3, 7, and 10).
Tumors were measured twice weekly using Vernier calipers. Tumor volumes were calculated using standard equation: V = W^2 × L/2, where V = volume, W = width, and L = length for the tumor. When mean tumor volumes reached approximately 180 mm^3, mice were randomized into control and treatment groups. Mice were randomized into 8 groups (n=8/group) and dosed with vehicle (20% HPβCD), I-263a, daratumumab, or the combination of I-263a plus daratumumab at doses and schedules as described above. Tumor size and body weight were measured twice a week for the duration of the study. […]

## Daratumumab: immunoglobulin G1 kappa (IgG1κ) human monoclonal antibody against CD38 antigen
[1]; Daratumumab 2.5 mg/kg BIW IP
  Tumor volume on Day 14 (± SEM): 2047.4 ± 83.4
  GRI%: 11%
[1]; Daratumumab 7.5 mg/kg BIW IP
  Tumor volume on Day 14 (± SEM): 1653 ± 158.5
  GRI%: 20%
[1]; Daratumumab 20 mg/kg BIW IP
  Tumor volume on Day 14 (± SEM): 1250.6 ± 108.6
  GRI%: 28%
[1]
  Tumor growth compared to vehicle (pairwise comparison): significantly inhibited growth curves
[2]; Daratumumab 2.5 mg/kg BIW IP
  Tumor volume on Day 20 (± SEM): 1875.5 ± 170.1
  GRI%: -6%
[2]; Daratumumab 7.5 mg/kg BIW IP
  Tumor volume on Day 20 (± SEM): 1510.7 ± 144.6
  GRI%: -2%
[2]; Daratumumab 20 mg/kg BIW IP
  Tumor volume on Day 20 (± SEM): 1456.6 ± 166.6
  GRI%: 11%
[2]
  Tumor growth compared to vehicle-treated tumors (pairwise comparison): not significantly different than vehicle-treated tumors
[3]; Daratumumab 2.5 mg/kg BIW IP
  Tumor volume on Day 14 (± SEM): 999.5 ± 187.7
  GRI%: 37%
[3]; Daratumumab 7.5 mg/kg BIW IP
  Tumor volume on Day 14 (± SEM): 838.3 ± 142.8
  GRI%: 45%
[3]; Daratumumab 20 mg/kg BIW IP
  Tumor volume on Day 14 (± SEM): 656.2 ± 127.2
  GRI%: 54%
[3]
  Tumor growth compared to vehicle (pairwise comparison): significantly inhibited tumor growth curves

## Cc1sc(C(=O)c2cncnc2N[C@@H]2C[C@H](COS(N)(=O)=O)[C@@H](O)C2)cc1[C@@H]1NCCc2ccc(Cl)cc21 [Compound I-263a, [(1R,2S,4R)-4-{[5-({4-[(1R)-7-chloro-1,2,3,4-tetrahydroisoquinolin-1-yl]-5-methyl-2-thienyl}carbonyl)pyrimidin-4-yl]amino}-2-hydroxycyclopentyl]methyl sulfamate]
[1]
  Tumor growth compared to vehicle (pairwise comparison): not significantly different
[1]; I-263a 7.5 mg/kg BIW IV
  Tumor volume on Day 14 (± SEM): 2500.8 ± 106.6
  GRI%: 3%
[2]
  Tumor growth compared to vehicle-treated tumors (pairwise comparison): not significantly different than vehicle-treated tumors
[2]; I-263a 7.5 mg/kg BIW IV
  Tumor volume on Day 20 (± SEM): 1763.2 ± 213.2
  GRI%: -12%
[3]
  Tumor growth compared to vehicle (pairwise comparison): not significantly different from vehicle
[3]; I-263a 7.5 mg/kg BIW IV
  Tumor volume on Day 14 (± SEM): 1763.8 ± 187.6
  GRI%: 6%
